From the supplement of paper PMC10307832

How the values were obtained:
Assay in all cases: relative viability (nuclei count vs DMSO), 5 days (fraction); higher = more cells survive
BEN = test system: BEN
How it was run: (§1)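 Each reported value is a median over duplicate plates. It expresses relative viability: treated-well nuclei count divided by vehicle-well nuclei count. Lung cancer cell lines in 1536-well plates were dosed by pin tool a day after seeding, alone with one drug or with a fixed anchor-drug dose plus five library-drug doses (not always all listed) in √10 steps, and nuclei were counted after 5 days.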

EMC-BAC-2 = test system: EMC-BAC-2
How it was run: as §1

HCC-15 = test system: HCC-15
How it was run: as §1

HCC-44 = test system: HCC-44
How it was run: as §1

HOP-62 = test system: HOP-62
How it was run: as §1

LC-2-ad = test system: LC-2-ad
How it was run: as §1

LU99A = test system: LU99A
How it was run: as §1

NCI-H1395 = test system: NCI-H1395
How it was run: as §1

NCI-H1437 = test system: NCI-H1437
How it was run: as §1

NCI-H1734 = test system: NCI-H1734
How it was run: as §1

NCI-H1755 = test system: NCI-H1755
How it was run: as §1

NCI-H1915 = test system: NCI-H1915
How it was run: as §1

NCI-H2023 = test system: NCI-H2023
How it was run: as §1

NCI-H2126 = test system: NCI-H2126
How it was run: as §1

NCI-H2170 = test system: NCI-H2170
How it was run: as §1

NCI-H3122 = test system: NCI-H3122
How it was run: as §1

NCI-H358 = test system: NCI-H358
How it was run: as §1

NCI-H650 = test system: NCI-H650
How it was run: as §1

NCI-H727 = test system: NCI-H727
How it was run: as §1

SW 1573 = test system: SW 1573
How it was run: as §1

SW 900 = test system: SW 900
How it was run: as §1

For `Cc1csc(=NC2CCCCC2)n1/N=C/c1ccc(O)c(O)c1O` [MIM1] + O=C(CCCCCCC(=O)Nc1ccccc1)NO [Vorinostat] (partner 1 µM), the relative viability (BEN; first compound 0.2 µM) was 0.587, the relative viability (BEN; first compound 0.6325 µM) was 0.546 and the relative viability (BEN; first compound 2 µM) was 0.562. For the same compound, the relative viability (BEN; first compound 6.325 µM) was 0.511, the relative viability (BEN; first compound 20 µM) was 0.394 and the relative viability (EMC-BAC-2; first compound 0.2 µM) was 0.492. The relative viability (EMC-BAC-2; first compound 0.6325 µM) was 0.302, the relative viability (EMC-BAC-2; first compound 2 µM) was 0.404 and the relative viability (EMC-BAC-2; first compound 6.325 µM) was 0.313. The relative viability (EMC-BAC-2; first compound 20 µM) was 0.157, the relative viability (HCC-15; first compound 0.2 µM) was 0.789 and the relative viability (HCC-15; first compound 0.6325 µM) was 0.81. It also gave a relative viability (HCC-15; first compound 2 µM) of 0.87, a relative viability (HCC-15; first compound 6.325 µM) of 0.49 and a relative viability (HCC-15; first compound 20 µM) of 0.167. It also gave a relative viability (HCC-44; first compound 0.2 µM) of 1.1, a relative viability (HCC-44; first compound 0.6325 µM) of 1.1 and a relative viability (HCC-44; first compound 2 µM) of 1.01. The relative viability (HCC-44; first compound 6.325 µM) was 1.08, the relative viability (HCC-44; first compound 20 µM) was 0.324 and the relative viability (HOP-62; first compound 0.2 µM) was 0.655. For the same compound, the relative viability (HOP-62; first compound 0.6325 µM) was 0.469, the relative viability (HOP-62; first compound 2 µM) was 0.541 and the relative viability (HOP-62; first compound 6.325 µM) was 0.379. It also gave a relative viability (HOP-62; first compound 20 µM) of 0.0827, a relative viability (LC-2-ad; first compound 0.2 µM) of 0.698 and a relative viability (LC-2-ad; first compound 0.6325 µM) of 0.306. The relative viability (LC-2-ad; first compound 2 µM) was 0.777, the relative viability (LC-2-ad; first compound 6.325 µM) was 0.267 and the relative viability (LC-2-ad; first compound 20 µM) was 0.204. For the same compound, the relative viability (LU99A; first compound 0.2 µM) was 0.515, the relative viability (LU99A; first compound 0.6325 µM) was 0.435 and the relative viability (LU99A; first compound 2 µM) was 0.463. It also gave a relative viability (LU99A; first compound 6.325 µM) of 0.387, a relative viability (LU99A; first compound 20 µM) of 0.119 and a relative viability (NCI-H1395; first compound 0.2 µM) of 0.799. The relative viability (NCI-H1395; first compound 0.6325 µM) was 0.626, the relative viability (NCI-H1395; first compound 2 µM) was 0.641 and the relative viability (NCI-H1395; first compound 6.325 µM) was 0.422. It also gave a relative viability (NCI-H1395; first compound 20 µM) of 0.322, a relative viability (NCI-H1437; first compound 0.2 µM) of 0.712 and a relative viability (NCI-H1437; first compound 0.6325 µM) of 0.843. It also gave a relative viability (NCI-H1437; first compound 2 µM) of 0.833, a relative viability (NCI-H1437; first compound 6.325 µM) of 0.313 and a relative viability (NCI-H1437; first compound 20 µM) of 0.197. It also gave a relative viability (NCI-H1734; first compound 0.2 µM) of 0.911, a relative viability (NCI-H1734; first compound 0.6325 µM) of 0.582 and a relative viability (NCI-H1734; first compound 2 µM) of 0.757. For the same compound, the relative viability (NCI-H1734; first compound 6.325 µM) was 0.442, the relative viability (NCI-H1734; first compound 20 µM) was 0.125 and the relative viability (NCI-H1755; first compound 0.2 µM) was 0.708. The relative viability (NCI-H1755; first compound 0.6325 µM) was 0.65, the relative viability (NCI-H1755; first compound 2 µM) was 0.792 and the relative viability (NCI-H1755; first compound 6.325 µM) was 0.671. The relative viability (NCI-H1755; first compound 20 µM) was 0.296, the relative viability (NCI-H1915; first compound 0.2 µM) was 0.527 and the relative viability (NCI-H1915; first compound 0.6325 µM) was 0.429. For the same compound, the relative viability (NCI-H1915; first compound 2 µM) was 0.442, the relative viability (NCI-H1915; first compound 6.325 µM) was 0.343 and the relative viability (NCI-H1915; first compound 20 µM) was 0.17. For the same compound, the relative viability (NCI-H2023; first compound 0.2 µM) was 0.55, the relative viability (NCI-H2023; first compound 0.6325 µM) was 0.58 and the relative viability (NCI-H2023; first compound 2 µM) was 0.391. It also gave a relative viability (NCI-H2023; first compound 6.325 µM) of 0.194, a relative viability (NCI-H2023; first compound 20 µM) of 0.0736 and a relative viability (NCI-H2126; first compound 0.2 µM) of 0.745. It also gave a relative viability (NCI-H2126; first compound 0.6325 µM) of 0.454, a relative viability (NCI-H2126; first compound 2 µM) of 0.838 and a relative viability (NCI-H2126; first compound 6.325 µM) of 0.711. It also gave a relative viability (NCI-H2126; first compound 20 µM) of 0.404, a relative viability (NCI-H2170; first compound 0.2 µM) of 0.786 and a relative viability (NCI-H2170; first compound 0.6325 µM) of 0.696. It also gave a relative viability (NCI-H2170; first compound 2 µM) of 0.748, a relative viability (NCI-H2170; first compound 6.325 µM) of 0.479 and a relative viability (NCI-H2170; first compound 20 µM) of 0.138. It also gave a relative viability (NCI-H3122; first compound 0.2 µM) of 0.959, a relative viability (NCI-H3122; first compound 0.6325 µM) of 0.894 and a relative viability (NCI-H3122; first compound 2 µM) of 1.02. It also gave a relative viability (NCI-H3122; first compound 6.325 µM) of 0.618, a relative viability (NCI-H3122; first compound 20 µM) of 0.127 and a relative viability (NCI-H358; first compound 0.2 µM) of 0.741. The relative viability (NCI-H358; first compound 0.6325 µM) was 0.628, the relative viability (NCI-H358; first compound 2 µM) was 0.678 and the relative viability (NCI-H358; first compound 6.325 µM) was 0.235. It also gave a relative viability (NCI-H358; first compound 20 µM) of 0.169, a relative viability (NCI-H650; first compound 0.2 µM) of 0.481 and a relative viability (NCI-H650; first compound 0.6325 µM) of 0.257. For the same compound, the relative viability (NCI-H650; first compound 2 µM) was 0.402, the relative viability (NCI-H650; first compound 6.325 µM) was 0.414 and the relative viability (NCI-H650; first compound 20 µM) was 0.116. The relative viability (NCI-H727; first compound 0.2 µM) was 1.29, the relative viability (NCI-H727; first compound 0.6325 µM) was 1.16 and the relative viability (NCI-H727; first compound 2 µM) was 1.15. It also gave a relative viability (NCI-H727; first compound 6.325 µM) of 1.06, a relative viability (NCI-H727; first compound 20 µM) of 0.607 and a relative viability (SW 1573; first compound 0.2 µM) of 0.806. For the same compound, the relative viability (SW 1573; first compound 0.6325 µM) was 0.668, the relative viability (SW 1573; first compound 2 µM) was 0.773 and the relative viability (SW 1573; first compound 6.325 µM) was 0.573. For the same compound, the relative viability (SW 1573; first compound 20 µM) was 0.131, the relative viability (SW 900; first compound 0.2 µM) was 0.45 and the relative viability (SW 900; first compound 0.6325 µM) was 0.632. It also gave a relative viability (SW 900; first compound 2 µM) of 0.549, a relative viability (SW 900; first compound 6.325 µM) of 0.175 and a relative viability (SW 900; first compound 20 µM) of 0.187.
